The source of these data is the OligoGym collection.

Where “and” joins values, the source holds several entries; their conditions need not be identical. Equal entries are not always repeated. After the bases stand the sugars from the 5' end (letter, count) and the backbone: PS all phosphorothioate, else s phosphorothioate and o phosphodiester by linkage. Methylation of C is not given here. e = 2'-O-(2-methoxyethyl) (MOE); k = constrained ethyl (cEt); d = 2'-deoxy (DNA)

The data set has as its target SOD1. The conditions noted are these: ASO.

As for “GGATACATTTCTACAGC (sugars e2 k2 d8 k2 e3, PS)”, the target mRNA inhibition turned out to be 4% (HepG2, 0.1875 µM); 49% (HepG2, 0.75 µM); 72% (HepG2, 3 µM); 75% (HepG2, 4 µM); 87% (HepG2, 12 µM).

Under “HepG2, 3 µM”, “ATGTTTATTGGGCGATC (sugars e3 k2 d7 k2 e3, PS)” came in with a target mRNA inhibition of 28%.

For the sequence “GGCCCACCGTGTTTTCTGGA (sugars e5 d10 e5, PS)”, the target mRNA inhibition (HepG2, 5 µM) was 46% and 41%.

For the setting “HepG2, 3 µM”, “TCCTTCTGCTCGAAATT (sugars e3 k2 d7 k2 e3, PS)” came in with a target mRNA inhibition of 14%.

For the sequence “TAAGTCTGGCAAAATAC (sugars e2 k2 d8 k2 e3, PS)”, the target mRNA inhibition (HepG2, 5 µM) was 24%.

“CTTTCTTCATTTCCACC (sugars e3 k2 d7 k2 e3, PS)”: where the note is “HepG2, 3 µM”, the target mRNA inhibition was determined as 11%.

Regarding “GTTTATCAGGATACATT (sugars e2 k2 d8 k2 e3, PS)”, the target mRNA inhibition is, setting by setting: (HepG2, 0.1875 µM) 41%; (HepG2, 0.75 µM) 73%; (HepG2, 3 µM) 89%; (HepG2, 4 µM) 85%; (HepG2, 12 µM) 92% and 95%.

Take “CTGCACTGGTACAGCCTGCT (sugars e5 d10 e5, PS)”: under “HepG2, 5 µM”, the target mRNA inhibition was 38% and 29%.

Turning to “CACAGAATCTTCAATAGACA (sugars e5 d10 e5, PS)”, the target mRNA inhibition (HepG2, 5 µM) was 10% and 14%.

On to “AATTTGGATTCTTTTAATAG (sugars e5 d10 e5, PS)”, for which the target mRNA inhibition (HepG2, 5 µM) is 14%.

For “GGATAACAGATGAGTTA (sugars e2 k2 d8 k2 e3, PS)”, the target mRNA inhibition (HepG2, 4 µM) worked out at 63%.

The sequence “AGGTCATTGAAACAGAC (sugars e2 k2 d9 k2 e2, PS)” showed a target mRNA inhibition (HepG2, 5 µM) of 44%.

With “TTCACAGGCTTGAATGA (sugars e2 k2 d8 k2 e3, PS)”, for the setting “HepG2, 5 µM”, the target mRNA inhibition turned out to be 20%.

With “AGTGTTTAATGTTTAT (sugars ekddddddddekekee, linkages s1 o1 s8 o3 s2)”, the target mRNA inhibition reads like this: (A431, 0.12 µM) 10%; (A431, 0.6 µM) 22%; (A431, 3 µM) 48%; (A431, 15 µM) 77%.

Regarding “TCTGTGATTTAAGTCTGGCA (sugars e5 d10 e5, PS)”, the target mRNA inhibition (HepG2, 5 µM) turned out to be 44%.

With “TCCTTTGGCCCACCGTGTTT (sugars e5 d10 e5, PS)”, where the note is “HepG2, 5 µM”, the target mRNA inhibition was 30% and 23%.

The sequence “TCAGTTTCTCACTACAG (sugars e2 k2 d9 k2 e2, PS)” returned a target mRNA inhibition (HepG2, 5 µM) of 43%.

Regarding “CTCTTCATCCTTTGGCC (sugars e3 k2 d7 k2 e3, PS)”, where the note is “HepG2, 3 µM”, the target mRNA inhibition worked out at 26%.

Sequence “GACAAGTTTAATACCCA (sugars e2 k2 d9 k2 e2, PS)” returned a target mRNA inhibition (HepG2, 5 µM) of 59%.

“GTGTGCGGCCAATGATGCAA (sugars e5 d10 e5, PS)”: the target mRNA inhibition (HepG2, 5 µM) stood at 15%.

In turn, “TTCATCCTTTGGCCCACCGT (sugars e5 d10 e5, PS)” showed a target mRNA inhibition (HepG2, 3 µM) of 30%.

The sequence “TGGCAAAATACAGGTCA (sugars e2 k2 d9 k2 e2, PS)” displayed a target mRNA inhibition (HepG2, 5 µM) of 43%.

“ATAACAGATGAGTTAAG (sugars e2 k2 d8 k2 e3, PS)” had a target mRNA inhibition (HepG2, 4 µM) of 27%.

“CCAACATGCCTCTCTTC (sugars e3 k2 d7 k2 e3, PS)” yielded a target mRNA inhibition (HepG2, 3 µM) of 0%.

For the setting “HepG2, 5 µM”, “GGATTCTTTTAATAGCC (sugars e2 k2 d8 k2 e3, PS)” showed a target mRNA inhibition of 14%.

“ATCTTCCAAGTGATCAT (sugars e3 k2 d7 k2 e3, PS)”: the target mRNA inhibition (HepG2, 3 µM) stood at 7%.

For the setting “HepG2, 5 µM”, “CCCATCTGTGATTTAAG (sugars e2 k2 d9 k2 e2, PS)” had a target mRNA inhibition of 49%.

As for “TCTGACAAGTTTAATAC (sugars e2 k2 d9 k2 e2, PS)”, for the setting “HepG2, 5 µM”, the target mRNA inhibition turned out to be 20%.

Consider “GGGCGATCCCAATTACA (sugars e2 k2 d9 k2 e2, PS)”, for which the target mRNA inhibition (HepG2, 4 µM) is 30%.

On to “AGTGTTTAATGTTTATC (sugars e2 k2 d8 e5, linkages s1 o2 s9 o2 s2)”, for which the target mRNA inhibition was found to be 16% (A431, 0.062 µM); 43% (A431, 0.185 µM); 65% (A431, 0.556 µM); 68% (A431, 1.667 µM); 79% (A431, 5 µM); 83% (A431, 15 µM). Further, the target mRNA inhibition is, setting by setting: (SH-SY5Y, 0.062 µM) 33%; (SH-SY5Y, 0.185 µM) 10%; (SH-SY5Y, 0.556 µM) 43%; (SH-SY5Y, 1.667 µM) 61%; (SH-SY5Y, 5 µM) 81%; (SH-SY5Y, 15 µM) 77%.

Turning to “GACTACATCCAAGGGAA (sugars e2 k2 d8 k2 e3, PS)”, the target mRNA inhibition (HepG2, 4 µM) worked out at 50%.

Sequence “CAGGATACATTTCTACA (sugars e2 k2 d8 k2 e3, PS)” returned a target mRNA inhibition (HepG2, 0.1875 µM) of 30%; a target mRNA inhibition (HepG2, 0.75 µM) of 62%; a target mRNA inhibition (HepG2, 3 µM) of 81%; a target mRNA inhibition (HepG2, 4 µM) of 79%; a target mRNA inhibition (HepG2, 12 µM) of 94%.

In the case of “TCCATGCAGGCCTTCAG (sugars e3 k2 d7 k2 e3, PS)”, under “HepG2, 3 µM”, the target mRNA inhibition was 18%.

In turn, “ATTGATGATGCCCTGCACTG (sugars e5 d10 e5, PS)” yielded a target mRNA inhibition (HepG2, 4 µM) of 8%.

As for “TACATTTCTACAGCTA (sugars ekddddddddekekee, linkages s1 o1 s8 o3 s2)”, the target mRNA inhibition is, setting by setting: (A431, 0.12 µM) 37%; (A431, 0.6 µM) 0%; (A431, 3 µM) 22%; (A431, 15 µM) 12%; (HepG2, 0.222 µM) 36%; (HepG2, 0.667 µM) 69%. This sequence also returned a target mRNA inhibition (HepG2, 2 µM) of 83% and a target mRNA inhibition (HepG2, 6 µM) of 95%.

In the case of “TTTATTGGGCGATCCCA (sugars e2 k2 d8 k2 e3, PS)”, the target mRNA inhibition (HepG2, 4 µM) stood at 34%.

“CCCACTCTGGCCCCAAA (sugars e3 k2 d7 k2 e3, PS)” gave a target mRNA inhibition (HepG2, 3 µM) of 15%.

Turning to “ATCACAGAATCTTCAATAGA (sugars e5 d10 e5, PS)”, the target mRNA inhibition (HepG2, 5 µM) was 11% and 10%.

For the setting “HepG2, 3 µM”, “GTCTGGCAAAATACAGG (sugars e3 k2 d7 k2 e3, PS)” returned a target mRNA inhibition of 24%.

Sequence “TACTTTCTTCATTTCCA (sugars e3 k2 d7 k2 e3, PS)” returned a target mRNA inhibition (HepG2, 3 µM) of 18%.

“GCCGTCGCCCTTCAGCA (sugars e2 k2 d9 k2 e2, PS)” returned a target mRNA inhibition (HepG2, 4 µM) of 57%.

Regarding “AGGCTTGAATGACAAAGAAA (sugars e5 d10 e5, PS)”, the target mRNA inhibition (HepG2, 5 µM) stood at 27%.

Regarding “GTGTTTAATGTTTATCA (sugars e3 k2 d7 k2 e3, PS)”, the target mRNA inhibition (HepG2, 3 µM) was 37%.

The sequence “GCCCTTCAGCACGCACA (sugars e2 k2 d8 k2 e3, PS)” came in with a target mRNA inhibition (HepG2, 0.1875 µM) of 8%; a target mRNA inhibition (HepG2, 0.75 µM) of 38%; a target mRNA inhibition (HepG2, 3 µM) of 74%; a target mRNA inhibition (HepG2, 4 µM) of 75%; a target mRNA inhibition (HepG2, 12 µM) of 96%.

Turning to “CTTCCAAGTGATCATAA (sugars e2 k2 d9 k2 e2, PS)”, for the setting “HepG2, 5 µM”, the target mRNA inhibition was determined as 54%.

“TCTTCCAAGTGATCATA (sugars e2 k2 d9 k2 e2, PS)” gave a target mRNA inhibition (HepG2, 5 µM) of 43%.

“GTGTTTAATGTTTATC (sugars kekeddddddddekek, linkages s1 o3 s8 o1 s2)”: the target mRNA inhibition reads like this: (A431, 0.12 µM) 7%; (A431, 0.6 µM) 35%; (A431, 3 µM) 66%; (A431, 15 µM) 78%; (HepG2, 0.222 µM) 53%; (HepG2, 0.667 µM) 78%. Also, the target mRNA inhibition runs as follows: (HepG2, 2 µM) 82%; (HepG2, 6 µM) 90%.

In turn, “GTCATTGAAACAGACAT (sugars e2 k2 d9 k2 e2, PS)” yielded a target mRNA inhibition (HepG2, 5 µM) of 15%.

Turning to “TTTAATGTTTATCAGG (sugars ekddddddddekekee, linkages s1 o1 s8 o3 s2)”, the target mRNA inhibition reads like this: (A431, 0.12 µM) 20%; (A431, 0.6 µM) 5%; (A431, 3 µM) 12%; (A431, 15 µM) 33%; (HepG2, 0.222 µM) 21%; (HepG2, 0.667 µM) 38%. In addition, the target mRNA inhibition (HepG2, 2 µM) was determined as 58% and the target mRNA inhibition (HepG2, 6 µM) is 81%.

Regarding “AGTGTTTAATGTTTATC (sugars e2 k2 d8 k2 e3, linkages s1 o2 s9 o2 s2)”, the target mRNA inhibition is, setting by setting: (A431, 0.12 µM) 31%; (A431, 0.6 µM) 68%; (A431, 3 µM) 83%; (A431, 15 µM) 86%; (HepG2, 0.222 µM) 68%; (HepG2, 0.667 µM) 76%. The sequence also came in with a target mRNA inhibition (HepG2, 2 µM) of 86% and a target mRNA inhibition (HepG2, 6 µM) of 84%.

Regarding “TTACAGTGTTTAATGTT (sugars e3 k2 d7 k2 e3, PS)”, where the note is “HepG2, 3 µM”, the target mRNA inhibition was 18%.

For the setting “HepG2, 5 µM”, “ACAAGTTTAATACCCAT (sugars e2 k2 d9 k2 e2, PS)” came in with a target mRNA inhibition of 61%.

As for “ATACAGGTCATTGAAAC (sugars e2 k2 d9 k2 e2, PS)”, the target mRNA inhibition (HepG2, 5 µM) was 22%.

The sequence “AATACAGGTCATTGAAA (sugars e3 k2 d7 k2 e3, PS)” returned a target mRNA inhibition (HepG2, 3 µM) of 6%.

“CAGGATACATTTCTACAGCT (sugars e5 d10 e5, linkages sososssssssssssosos)” had a target mRNA inhibition (A431, 0.062 µM) of 20%; a target mRNA inhibition (A431, 0.185 µM) of 29%; a target mRNA inhibition (A431, 0.556 µM) of 49%; a target mRNA inhibition (A431, 1.667 µM) of 69%; a target mRNA inhibition (A431, 5 µM) of 76%; a target mRNA inhibition (A431, 15 µM) of 83%. Besides, the target mRNA inhibition is, setting by setting: (SH-SY5Y, 0.062 µM) 0%; (SH-SY5Y, 0.185 µM) 17%; (SH-SY5Y, 0.556 µM) 39%; (SH-SY5Y, 1.667 µM) 59%; (SH-SY5Y, 5 µM) 85%; (SH-SY5Y, 15 µM) 82%.
